Results on seven compounds are retold here after article PMC8355244, “A fragment-based approach identifies an allosteric pocket that impacts malate dehydrogenase activity” (Communications Biology, 2021).

The assay addresses T1, WT PfMDH (Plasmodium falciparum, UniProt Q6VVP7).
T1 construct: The full-length WT PfMDH gene was cloned into pETM-13; made in house; host or cells: E. coli Rosetta 2 (DE3) pLysS
The assay can be described thus: Activity screening of 4DT / 4-phenylthiazol-2-amine derivatives (oxidation of malate, absorbance at 340 nm). It counts as biochemical. Particulars: for inhibition at 500 µM: Dunnett's multiple comparisons test, read-out: Mean Diff. (positive control vs. compound); for Slope repl1 / Slope repl2: linear regression slope of absorbance 340 nm vs time; for Slope normalized repl1: slope relative to control = 1, replicate 1; for Slope normalized repl2: slope relative to control = 1, replicate 2. As for the experimental part: The oxidation of malate to oxaloacetate was assayed spectrophotometrically in flat-bottomed Corning 96-well microplates in a total volume of 250.0 µl in 50 mM glycine buffer pH 10.2[24] with an additional 400 mM NaCl for protein stability. The increase of absorbance at 340 nm was recorded in kinetic mode using a Tecan Spark multimode microplate reader at 298 K. A mastermix of 50 mM NAD+ and 44 μM PfMDH was used for both the screening and kinetics experiments. The final concentration of protein and cofactor were […], respectively. Positive control groups were set (absence of compound) in the same plate as the treated group. The absorbance from the background noise was subtracted from the data and then a linear regression model was employed in order to get the line slope from the first 5 min of the reaction. The percentage of enzymatic activity has been calculated as described by Eq. (1)1 enzymeactivity(%)=slopetreated/slopepositivecontrol*100
1.3 µL of derivatives of 4-phenylthiazol-2-amine in 100% DMSO were mixed with 237.7 µL of a mastermix of WT PfMDH previously incubated with NAD+. The final compound concentration used in this screening was 500 µM in the presence of 0.5% (v/v) DMSO. The microplate was sealed with silver foil for 1-h incubation at 25–35 °C. Finally, reactions in both the samples and control wells were started upon the addition of 13.0 µL of 5 mM malate). At the end of the experiments, the reaction of the plate was spectrophotometrically assayed at 600 nm in order to identify turbidity due to the low solubility of the compound. All measurements were performed in duplicate.

Setting [1] is: 500 µM compound, Dunnett test details, positive control mean 100, n 2, read-out: Mean 2 (mean % enzymatic activity of treated group).
Setting [2] is: 500 µM compound, control 100%, replicate 1, read-out: % enzymatic activity repl1.
The mark [3] stands for this setting: 500 µM compound, control 100%, replicate 2, read-out: % enzymatic activity repl2.

Read-outs that look alike come from different tables or passages of the source.

T1 sequence (Q6VVP7 entry or part of it): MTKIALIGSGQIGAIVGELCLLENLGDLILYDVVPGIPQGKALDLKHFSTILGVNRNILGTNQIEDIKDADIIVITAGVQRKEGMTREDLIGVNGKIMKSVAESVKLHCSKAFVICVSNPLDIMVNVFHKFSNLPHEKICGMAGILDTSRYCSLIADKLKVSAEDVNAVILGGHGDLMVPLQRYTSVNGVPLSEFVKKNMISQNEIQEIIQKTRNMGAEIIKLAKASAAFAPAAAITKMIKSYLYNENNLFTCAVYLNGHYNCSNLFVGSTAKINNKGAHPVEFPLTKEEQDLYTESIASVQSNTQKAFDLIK

In the case of `O=C(O)c1nc(-c2ccccc2)cs1` [4a], the remaining activity at 500 µM was 65% under setting [1], 64% under setting [2], 66% under setting [3] and 65% (read-out: enzyme activity). The inhibition at 500 µM (500 µM compound) amounted to 35%. Further, the “Slope repl1” value (500 µM compound, replicate 1) was 0.02124. Further, under “500 µM compound, replicate 2”, the “Slope repl2” value worked out at 0.02324. The “Slope normalized repl1” value (500 µM compound) came out at 0.6376. Where the note is “500 µM compound”, the “Slope normalized repl2” value turned out to be 0.6632.

Consider `CC(C)(C)OC(=O)CNC(=O)c1cc(-c2cccs2)on1` [4b], for which the remaining activity at 500 µM by setting is: under setting [1], 21%; under setting [2], 22%; under setting [3], 19%; (read-out: enzyme activity) 20%. In addition, the inhibition at 500 µM (500 µM compound) came out at 79.5%. Where the note is “500 µM compound, replicate 1”, the “Slope repl1” value came out at 0.007266. Besides, the “Slope repl2” value (500 µM compound, replicate 2) is 0.006583. Further, the “Slope normalized repl1” value (500 µM compound) is listed as 0.2181. Also, where the note is “500 µM compound”, the “Slope normalized repl2” value amounted to 0.1879.

Take `Nc1cc(-c2ccccc2)[nH]n1` [5b]: the remaining activity at 500 µM under setting [1] was 53%, the remaining activity at 500 µM under setting [2] came to 63%, the remaining activity at 500 µM under setting [3] was 42% and the remaining activity at 500 µM (read-out: enzyme activity) is 53%. The inhibition at 500 µM (500 µM compound) worked out at 47.5%. Also, the “Slope repl1” value (500 µM compound, replicate 1) turned out to be 0.02092. The “Slope repl2” value (500 µM compound, replicate 2) came out at 0.01483. Also, the “Slope normalized repl1” value (500 µM compound) is 0.628. Further, the “Slope normalized repl2” value (500 µM compound) turned out to be 0.4232.

Turning to `Nc1nc(-c2ccc(Cl)c(Cl)c2)cs1` [7a], the remaining activity at 500 µM under setting [1] was 24%, the remaining activity at 500 µM under setting [2] was 26%, the remaining activity at 500 µM under setting [3] was 21% and the remaining activity at 500 µM (read-out: enzyme activity) amounted to 23%. Besides, the inhibition at 500 µM (500 µM compound) amounted to 76.5%. The “Slope repl1” value (500 µM compound, replicate 1) amounted to 0.008711. Further, under “500 µM compound, replicate 2”, the “Slope repl2” value amounted to 0.007289. For the same compound, the “Slope normalized repl1” value (500 µM compound) was 0.2615. For the same compound, the “Slope normalized repl2” value (500 µM compound) is on record as 0.208.

As to `O=C(O)c1cc(-c2cccs2)on1` [compound 1b], the remaining activity at 500 µM by setting is: under setting [1], 60%; under setting [2], 65%; under setting [3], 54%; (read-out: enzyme activity) 60%. Besides, the inhibition at 500 µM (500 µM compound) is 40.5%. Besides, the “Slope repl1” value (500 µM compound, replicate 1) was found to be 0.0217. The “Slope repl2” value (500 µM compound, replicate 2) is on record as 0.019. For the setting “500 µM compound”, the “Slope normalized repl1” value turned out to be 0.6515. Moreover, where the note is “500 µM compound”, the “Slope normalized repl2” value is 0.5422.

In the case of `Cc1c(CO)cnn1-c1ccccc1` [compound 6b], the enzyme activity entry (500 µM compound, 0.5% DMSO, vs control, mean of n = 2) is “no statistical difference with the control”. For the same compound, the remaining activity at 500 µM under setting [1] is 80%. Moreover, for the setting “500 µM compound”, the inhibition at 500 µM is 20%, the “Slope normalized repl1” value is listed as 0.7992 and the “Slope normalized repl2” value came out at 0.7957. In addition, the remaining activity at 500 µM under setting [2] is 80%. Moreover, the remaining activity at 500 µM under setting [3] came out at 80%. Besides, the “Slope repl1” value (500 µM compound, replicate 1) was 0.02662. The “Slope repl2” value (500 µM compound, replicate 2) turned out to be 0.02788.

As for `Nc1nc(-c2ccc(F)cc2)cs1` [compound 9a], the remaining activity at 500 µM by setting is: under setting [1], 51%; under setting [2], 57%; under setting [3], 45%; (read-out: enzyme activity) 51%. Moreover, the inhibition at 500 µM (500 µM compound) stood at 49%. For the same compound, the “Slope repl1” value (500 µM compound, replicate 1) stood at 0.01901. Moreover, the “Slope repl2” value (500 µM compound, replicate 2) was 0.01582. For the setting “500 µM compound”, the “Slope normalized repl1” value is 0.5707. For the same compound, the “Slope normalized repl2” value (500 µM compound) is on record as 0.4515.
